The assay relates to Plasma testosterone concentrations. In words: Testosterone in vivo test. Particulars: Rattus norvegicus, 2 h; male rats, oral; LHRH-analogue i.m. after one hour; plasma testosterone two hours after administration; 50% inhibition relative to placebo.

Molecules are shown by their SMILES.

Protocol: Male rats were administered orally a test compound as a solution or as a suspension in aqueous medium. One hour following drug or placebo administration, a luteinizing hormone releasing hormone- analogue was injected intramuscularly and an anaesthetic was administered intraperitonally. Two hours after the oral administration of the test compound the rats were decapitated, and the blood was collected on heparine. Plasma testosterone concentrations were measured by standard radio-immunological procedures. A 50% inhibition relative to the placebo values was considered as the criterion of testosterone inhibitory activity. ED50-values were determined by probit analysis.

As to `Cn1cnc2cc(C(c3ccccc3)n3ccnc3)ccc21` (centres unmarked) [Compound 28], the ED50 (as a rule, the dose that gives a 50% effect, or the effect in half of the subjects) came to 2.5 mg/kg. `Cn1c(-c2ccccc2)nc2ccc(C(c3ccccc3)n3ccnc3)cc21` (centres unmarked) [Compound 30] displayed a median effective dose (ED50) of 2.5 mg/kg.

On to `c1csc(C(c2ccc3[nH]c(-c4cscn4)nc3c2)n2ccnc2)c1` (centres unmarked) [Compound 34], for which the ED50 is 2.5 mg/kg. With `COc1ccc(-c2nc3cc(C(c4ccccc4)n4ccnc4)ccc3[nH]2)cc1` (centres unmarked) [Compound 49] the figure was less than 2.5 mg/kg; with `c1cn(Cc2ccc3[nH]c(-c4cscn4)nc3c2)cn1` [Compound 51], 2.5 mg/kg; with `Nc1ncccc1-c1nc2cc(Cn3ccnc3)ccc2[nH]1` [Compound 53], 2.5 mg/kg. Regarding `CCC(c1ccc2[nH]c(-c3ccccc3)nc2c1)n1ccnc1` (centres unmarked) [Compound 54], the 50% effect level (ED50) was put at a dose of 2.5 mg/kg. The molecule `c1ccc2c(Cc3nc4cc(Cn5ccnc5)ccc4[nH]3)c[nH]c2c1` [Compound 71] yielded an ED50 of 2.5 mg/kg. `CC(c1ccc2[nH]c(C(F)F)nc2c1)n1ccnc1` (centres unmarked) [Compound 78] yielded an ED50 of less than 2.5 mg/kg. With `CCC(c1ccc2[nH]c(C(F)(F)F)nc2c1)n1ccnc1` (centres unmarked) [Compound 83, 5-[1-(1 H-imidazol-1-yl)propyl]-2-(trifluoromethyl)-1 H-benzimidazole] the figure was less than 2.5 mg/kg; with `CC(C)C(c1ccc2[nH]c(C(F)(F)F)nc2c1)n1ccnc1` (centres unmarked) [Compound 84, 5-[1-(1 H-imidazol-1-yl)-2-methylpropyl]-2-(trifluoromethyl)-1 H-benzimidazole ethanedioate(1:1).hemihydrate], less than 2.5 mg/kg. The value for `Fc1ccccc1-c1nc2ccc(C(c3ccccc3)n3ccnc3)cc2[nH]1` (centres unmarked) [Compound 92, 2-(2-fluorophenyl)-5-[(1 H-imidazol-1-yl)phenylmethyl]-1H-benzimidazole ethanedioate(2:3)] was less than 2.5 mg/kg. The value for `Clc1cccc(C(c2ccc3[nH]cnc3c2)n2ccnc2)c1` (centres unmarked) [Compound 93, 5-[(3-chlorophenyl)-(1 H-imidazol-1-yl)methyl]-1 H-benzimidazole] was 2.5 mg/kg.

`c1ccc(Cn2cnc3ccc(Cn4ccnc4)cc32)cc1` [Compound 102]: the median effective dose (ED50) was less than 2.5 mg/kg. With `c1ccc(C(c2ccc3[nH]cnc3c2)n2ccnc2)cc1` (centres unmarked) [Compound 111, 5-[(1 H-imidazol-1-yl)phenylmethyl]-1 H-benzimidazole] the figure was less than 10 mg/kg. `c1cncc(C(c2ccc3[nH]cnc3c2)n2ccnc2)c1` (centres unmarked) [Compound 112, 5-[(1 H-imidazol-1-yl)(3-pyridinyl)methyl]-1 H-benzimidazole] returned an ED50 of 2.5 mg/kg. The value for `c1csc(C(c2ccc3[nH]cnc3c2)n2ccnc2)c1` (centres unmarked) [Compound 113, 5-[(1H-imidazol-1-yl)(2-thienyl)methyl]-1H-benzimidazole] was less than 10 mg/kg.

The molecule `COc1nc2cc(C(c3ccccc3)n3ccnc3)ccc2[nH]1` (centres unmarked) [Compound 115, 5-[(1 H-imidazol-1-yl)phenylmethyl]-2-methoxy-1 H-benzimidazole] returned an ED50 of 2.5 mg/kg.

`CCC(c1ccc2[nH]cnc2c1)n1ccnc1.Cl.Cl` (centres unmarked) [Compound 119, 5-[1-(1 H-imidazol-1-yl)propyl]-1 H-benzimidazole dihydrochloride] returned a median effective dose (ED50) of 2.5 mg/kg. The value for `Cc1nc2cc(C(c3cccc(Cl)c3)n3ccnc3)ccc2[nH]1` (centres unmarked) [Compound 122, 5-[(3-chlorophenyl)(1 H-imidazol-1-yl)methyl]-2-methyl-1 H-benzimidazole] was 2.5 mg/kg; that for `Cc1nc2cc(C(c3cccs3)n3ccnc3)ccc2[nH]1` (centres unmarked) [Compound 125] was 2.5 mg/kg. Molecule `Cc1nc2cc(C(c3ccc(Cl)cc3Cl)n3ccnc3)ccc2[nH]1` (centres unmarked) [Compound 127] gave a 50% effective dose (ED50) of 10 mg/kg. Compared with the last molecule, the ED50 is about 4-fold higher. With `CCCCCc1nc2cc(Cn3ccnc3)ccc2[nH]1` [Compound 133] the figure was less than 2.5 mg/kg; with `CCCCCc1nc2cc(C(c3ccccc3)n3ccnc3)ccc2[nH]1` (centres unmarked) [Compound 136], less than 2.5 mg/kg; with `Fc1cccc(-c2nc3cc(Cn4ccnc4)ccc3[nH]2)c1` [Compound 141], 2.5 mg/kg. The molecule `Fc1ccc(-c2nc3cc(Cn4ccnc4)ccc3[nH]2)cc1` [Compound 142] returned an ED50 of 2.5 mg/kg. `Cc1nc2cc(C(C(C)C)n3ccnc3)ccc2n1C` (centres unmarked) [Compound 160] registered a median effective dose (ED50) of 2.5 mg/kg. Turning to `Cc1ccc(-c2nc3cc(C(c4ccccc4)n4ccnc4)ccc3[nH]2)cc1` (centres unmarked) [Compound 173], the ED50 was less than 2.5 mg/kg. The value for `Fc1ccc(-c2nc3cc(C(c4ccccc4)n4ccnc4)ccc3[nH]2)cc1` (centres unmarked) [Compound 174] was less than 2.5 mg/kg. In the case of `Cc1nc2cc(C(C(C)C)n3ccnc3)ccc2[nH]1` (centres unmarked) [Compound 182], the median effective dose (ED50) amounted to 2.5 mg/kg.

Consider `CC(c1ccc2[nH]c(-c3cccnc3)nc2c1)n1ccnc1` (centres unmarked) [Compound 189, 5-[1-(1H-imidazol-1-yl)ethyl]-2-(3-pyridinyl)-1H-benzimidazole], for which the 50% effect level (ED50) was put at a dose of 2.5 mg/kg.

For `c1ccc(C(c2ccc3[nH]c(-c4cccnc4)nc3c2)n2ccnc2)cc1` (centres unmarked) [Compound 190, 5-[(1 H-imidazol-1-yl)phenylmethyl]-2-(3-pyridinyl)-1H-benzimidazole], the ED50 was 10 mg/kg. With `Cc1nc2cc(C(C)n3ccnc3)ccc2[nH]1.Cl.Cl` (centres unmarked) [Compound 206, 5-[1-(1 H-imidazol-1-yl)ethyl]-2-methyl-1 H-benzimidazole dihydrochloride] the figure was less than 2.5 mg/kg; with `Cn1c(O)nc2cc(Cn3ccnc3)ccc21` [Compound 222, 5-(1 H-imidazol-1-ylmethyl)-1-methyl-1 H-benzimidazol-2-ol], less than 2.5 mg/kg; with `COn1c(-c2ccccc2)nc2ccc(Cn3ccnc3)cc21` [Compound 227, 6-(1 H-imidazol-1-ylmethyl)-1-methoxy-2-phenyl-1 H-benzimidazole], 2.5 mg/kg.

The molecule `COn1c(-c2cccnc2)nc2ccc(Cn3ccnc3)cc21` [Compound 229] returned a median effective dose (ED50) of 2.5 mg/kg. The value for `COn1c(C)nc2ccc(C(c3ccccc3)n3ccnc3)cc21` (centres unmarked) [Compound 231] was 2.5 mg/kg; that for `COn1c(-c2ccc(F)cc2)nc2ccc(C(C)n3ccnc3)cc21` (centres unmarked) [Compound 235] was 2.5 mg/kg.

The values are drawn from patent publication EP0260744B1, “(1H-imidazol-1-ylmethyl) substituted benzimidazole derivatives” (JANSSEN PHARMACEUTICA N.V., priority 1986, dated 1988).
